Data on one compound can be found in US20230017785A1, “COMPANION DIAGNOSTICS FOR COMPLEMENT INHIBITORS” (THE JOHNS HOPKINS UNIVERSITY, priority 2019, published 2023).

The structures appear in SMILES notation. “Also recorded” adds a separate entry of the source.

For experiment [1], the system named is C5b-9 deposition on PIGA null TF-1 cells. Briefly: Flow cytometry for C5b-9 deposition. The settings on record: for Inhibition of C5b-9 deposition induced by APS patient sera: APS patient sera on PIGA null TF-1 cells; for Inhibition of C5b-9 deposition induced by CAPS sera: CAPS patient sera (e.g. CAPS5); for Inhibition of C5b-9 deposition induced by patient-derived IgG anti-β2GPI antibody: anti-β2GPI from thrombotic APS patient APS21 added to normal human serum. Type of experiment: cell-based, human. As for the experimental part: Patient derived anti-β2GPI antibodies. Anti-β2GPI antibodies from two patients were affinity purified using a column of Affigel HZ to which purified human β2GPI was coupled (Bio-Rad Laboratories, Hercules, Calif.), as previously described.^43 IgG purity was assessed by reduced SDS-PAGE. Complement activation (C5b-9 deposition and complement dependent cell killing in mHam) induced by patient-derived anti-β2GPI antibodies was tested by adding patient-derived anti-β2GPI antibodies to normal human serum (Cat. NHS, Complement Technology, Inc.).
Flow cytometry for C5b-9 deposition. Flow cytometry was performed to evaluate cell surface deposition of C5b-9 deposition on PIGA null TF1 cells. Cells were seeded in V-bottom 96-well plates (1.2×10^5 cells/well) either in GVB^0.MgEGTA (pH 6.4) buffer for alternative pathway activation or GVB++ (pH 7.4) buffer for classical pathway activation followed by addition of APS patient serum (or patient-derived aPL added to normal human serum). The reaction was incubated for 15 min at 37° C., and stopped by adding FACS buffer/EDTA. Cell pellets were separated by centrifugation at 1900 rpm for 3 minutes at room temperature and then stained with Alexa 488 conjugated anti-C3c antibody (Cat. 4212, Abcam, dilution at 1:100) and […] monoclonal primary antibody (Cat. 66768, Abcam, dilution at 1:100), followed by Alexa 647 conjugated secondary antibody. C5b-9 deposition was measured by a BD FACSCalibur. Ten thousand events were recorded per sample and analyzed using FlowJo software version 10.5.3 (FlowJo Inc). Normal human serum was used as a negative control for flow cytometry assays. We also evaluated the effect of adding anti-C5 mAb and ACH-4471 on C5b-9 deposition.

Experiment [2] has as its system PIGA null TF-1 cells. The note with it: previously demonstrated (ref. 46); cited from earlier work.
Experiment [3] deals with PIGA null TF-1 cells. Nature of the experiment: Modified Ham (mHam) assay, complement-dependent cell killing. Format: cell-based, human. The note with it: anti-C5 mAb 10 μg, ACH-4471 0.33 μM; for Inhibition of cell killing in the mHam induced by APS sera: APS patient sera; for Inhibition of mHam cell killing induced by CAPS sera: CAPS patient sera.

On to `CC(=O)c1nn(CC(=O)N2C[C@H](F)C[C@H]2C(=O)Nc2cccc(Br)n2)c2ccc(-c3cnc(C)nc3)cc12` [ACH-4471], for which the entries for the “Inhibition of C5b-9 deposition induced by APS patient sera” value in experiment [1] and in experiment [1] (listed as ACH4471) were “less so” and “did not appreciably inhibit; also recorded: did not prevent”, respectively. Moreover, the “Inhibition of C5b-9 deposition induced by CAPS sera” value is given as “partially blocked; also recorded: partially inhibited” in experiment [1] and “partially” in experiment [1] (listed as ACH4471). Moreover, in experiment [1] (aHUS patient PS-18 sera), the “Inhibition of C5b-9 deposition induced by aHUS patient sera” value was “completely inhibited”. The “Inhibition of C5b-9 deposition induced by patient-derived IgG anti-β2GPI antibody” value in experiment [1] is “partially”; in experiment [1] (listed as factor D inhibitor), “minimally inhibited”. Also, the “Blocking complement dependent killing in the mHam with aHUS serum” value in the experiment with PIGA null TF-1 cells [2] was “highly effective in blocking”. Besides, the “Inhibition of cell killing in the mHam induced by APS sera” value with PIGA null TF-1 cells [3] is listed as “less so”; in the experiment with PIGA null TF-1 cells [3] (listed as ACH4471), “did not prevent cell killing”. The “Inhibition of mHam cell killing induced by CAPS sera” value in the experiment with PIGA null TF-1 cells [3] is given as “partially blocked; also recorded: partially inhibited”; in the experiment with PIGA null TF-1 cells [3] (listed as factor D inhibitor), “attenuated”.
